According to ChEMBL document CHEMBL2202969, “Discovery and evolution of phenoxypiperidine hydroxyamide dual CCR3/H₁ antagonists. Part I” (Bioorg Med Chem Lett, 2012):

Tests used:
Histamine H1 receptor [1] = biological target: T1, Histamine H1 receptor (Homo sapiens, UniProt P35367); experiment: Displacement of [3H]-pyrilamine from human histamine H1 receptor expressed in recombinant CHOK1 cells after 1 hr; format: cell-based, CHO-K1
[2] = biological target: T2, C-C chemokine receptor type 3 (Homo sapiens, UniProt P51677); experiment: Displacement of [3H]-4-(2,4-dichloro-3-methylphenoxy)-l'-[4- (methylsulfonyl)benzoyl]-l,4'-bipiperidine from human recombinant CCR3 expressed in CHOK1 cells after 2 hrs by scintillation counting analysis; format: cell-based, CHO-K1
T2 sequence (P51677 whole entry): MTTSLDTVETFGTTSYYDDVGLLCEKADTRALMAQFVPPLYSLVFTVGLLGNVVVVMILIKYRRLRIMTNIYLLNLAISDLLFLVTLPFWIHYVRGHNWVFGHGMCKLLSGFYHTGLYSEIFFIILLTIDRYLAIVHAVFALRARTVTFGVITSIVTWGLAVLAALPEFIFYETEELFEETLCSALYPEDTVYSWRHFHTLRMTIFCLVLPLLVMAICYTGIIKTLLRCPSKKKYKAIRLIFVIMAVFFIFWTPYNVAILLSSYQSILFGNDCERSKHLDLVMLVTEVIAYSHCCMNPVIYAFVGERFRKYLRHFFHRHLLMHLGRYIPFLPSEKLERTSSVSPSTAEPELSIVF

[3] = biological target: T3, C-C chemokine receptor type 3 (Homo sapiens) (UniProt P51677); experiment: Displacement of [3H]-4-(2,4-dichloro-3-methylphenoxy)-l'-[4- (methylsulfonyl)benzoyl]-l,4'-bipiperidine from human recombinant CCR3 expressed in CHOK1 cells at 1 uM after 2 hrs by scintillation counting analysis; format: cell-based; settings: CHO-K1
T3 sequence (whole entry): T2 sequence (P51677 whole entry)

in vitro [4] = settings: rat, hepatocytes
in vitro [5] = settings: rat
in vitro [6] = settings: human, hepatocytes
physchem = settings: octanol/water
[7] = biological target: C-C chemokine receptor type 3 (Homo sapiens) (UniProt P51677); experiment: Displacement of radioligand from human CCR3 expressed in recombinant CHOK1 cells at 1 uM after 1 hr; settings: CHO-K1
in vitro [8] = settings: human
[9] = biological target: Voltage-gated inwardly rectifying potassium channel KCNH2 (Homo sapiens, UniProt Q12809)
Voltage-gated inwardly rectifying potassium channel KCNH2, sequence (Q12809 whole entry): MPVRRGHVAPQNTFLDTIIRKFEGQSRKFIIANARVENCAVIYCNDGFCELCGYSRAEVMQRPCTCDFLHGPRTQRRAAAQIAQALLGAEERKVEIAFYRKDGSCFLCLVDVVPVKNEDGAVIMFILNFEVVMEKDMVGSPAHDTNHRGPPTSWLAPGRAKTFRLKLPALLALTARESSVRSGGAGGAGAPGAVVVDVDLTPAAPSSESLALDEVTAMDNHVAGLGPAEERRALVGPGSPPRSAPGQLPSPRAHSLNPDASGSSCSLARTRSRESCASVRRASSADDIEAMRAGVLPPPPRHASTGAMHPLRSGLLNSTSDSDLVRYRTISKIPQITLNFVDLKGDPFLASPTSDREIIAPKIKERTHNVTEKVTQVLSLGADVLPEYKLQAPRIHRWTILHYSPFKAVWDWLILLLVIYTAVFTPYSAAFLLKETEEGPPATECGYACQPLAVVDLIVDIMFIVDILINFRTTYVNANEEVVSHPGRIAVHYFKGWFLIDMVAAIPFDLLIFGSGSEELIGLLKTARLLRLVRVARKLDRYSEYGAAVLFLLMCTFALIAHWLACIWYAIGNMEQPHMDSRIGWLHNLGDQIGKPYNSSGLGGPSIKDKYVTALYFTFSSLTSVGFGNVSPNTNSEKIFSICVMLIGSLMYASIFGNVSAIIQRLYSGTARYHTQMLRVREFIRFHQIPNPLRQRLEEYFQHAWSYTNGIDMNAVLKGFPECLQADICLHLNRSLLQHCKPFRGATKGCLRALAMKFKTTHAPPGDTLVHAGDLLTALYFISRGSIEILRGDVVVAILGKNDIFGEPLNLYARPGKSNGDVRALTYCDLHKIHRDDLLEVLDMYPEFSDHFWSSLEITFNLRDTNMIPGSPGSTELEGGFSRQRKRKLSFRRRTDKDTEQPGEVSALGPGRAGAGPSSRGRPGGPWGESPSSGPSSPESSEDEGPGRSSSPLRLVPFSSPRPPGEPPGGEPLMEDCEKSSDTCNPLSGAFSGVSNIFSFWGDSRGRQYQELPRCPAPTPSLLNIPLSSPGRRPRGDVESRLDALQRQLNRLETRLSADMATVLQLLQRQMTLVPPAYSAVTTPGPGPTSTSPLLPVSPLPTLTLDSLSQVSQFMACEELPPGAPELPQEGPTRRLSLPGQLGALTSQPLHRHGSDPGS

Histamine H1 receptor [10] = biological target: T1, Histamine H1 receptor; experiment: Antagonist activity at histamine H1 receptor; format: functional
[11] = biological target: T4, C-C chemokine receptor type 1 (Homo sapiens, UniProt P32246); experiment: Antagonist activity at CCR1; format: functional
T4 sequence (P32246 whole entry): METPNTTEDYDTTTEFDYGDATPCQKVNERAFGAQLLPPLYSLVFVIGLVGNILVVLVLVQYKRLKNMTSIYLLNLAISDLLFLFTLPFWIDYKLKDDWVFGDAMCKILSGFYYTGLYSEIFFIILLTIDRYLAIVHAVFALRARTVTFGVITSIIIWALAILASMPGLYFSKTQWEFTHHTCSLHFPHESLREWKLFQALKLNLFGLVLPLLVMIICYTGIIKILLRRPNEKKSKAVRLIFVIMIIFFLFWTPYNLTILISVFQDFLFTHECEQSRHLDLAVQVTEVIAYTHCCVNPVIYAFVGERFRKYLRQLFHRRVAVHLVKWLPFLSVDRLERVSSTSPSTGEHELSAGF

[12] = Oral bioavailability in rat; format: ADME, organism-based; settings: in vivo
in vivo [13] = settings: rat
in vivo [14] = settings: rat; remark: listed apart in the source
in vivo [15] = settings: rat; remark: listed apart in the source

T1 sequence (P35367 whole entry): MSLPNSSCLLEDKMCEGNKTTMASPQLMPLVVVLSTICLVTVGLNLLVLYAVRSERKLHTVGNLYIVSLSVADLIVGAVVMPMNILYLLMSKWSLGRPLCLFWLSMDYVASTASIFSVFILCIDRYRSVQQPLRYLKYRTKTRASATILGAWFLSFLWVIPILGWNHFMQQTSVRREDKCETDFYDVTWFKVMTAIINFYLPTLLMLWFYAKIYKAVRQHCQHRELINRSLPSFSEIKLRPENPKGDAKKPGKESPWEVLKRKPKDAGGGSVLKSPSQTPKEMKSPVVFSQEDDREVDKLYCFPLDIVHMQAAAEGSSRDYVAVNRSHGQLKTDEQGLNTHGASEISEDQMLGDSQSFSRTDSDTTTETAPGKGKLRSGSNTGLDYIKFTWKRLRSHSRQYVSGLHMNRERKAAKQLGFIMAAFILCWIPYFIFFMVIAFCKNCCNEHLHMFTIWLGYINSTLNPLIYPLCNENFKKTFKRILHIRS

Row | SMILES | Ki (Histamine H1 receptor [1]) [nM] | Ki [2] [nM] | inhibition [3] [%] | microsomal CLint (in vitro [5]; liver microsomes) [µL/min/mg] | logD (physchem) | inhibition [7] [%] | microsomal CLint (in vitro [8]; liver microsomes) [µL/min/mg] | IC50 [9] [nM] | further results
1 | CS(=O)(=O)c1ccccc1C(=O)NC[C@@H](O)CN1CCC(Oc2ccc(Cl)c(Cl)c2)CC1 | 200 | 15.8 | > 70 | 8 | 2.3 | > 70 | – | – | hepatocyte CLint (in vitro [4]): < 3 µL/min/1e6 cells; hepatocyte CLint (in vitro [6]): < 2 µL/min/1e6 cells
2 | COc1cccc(SC[C@@H](O)CN2CCC(Oc3ccc(Cl)c(Cl)c3)CC2)c1 | 20 | 126 | > 70 | 49 | > 4.5 | > 70 | 17 | – | –
3 | CN(C[C@@H](O)CN1CCC(Oc2ccc(Cl)c(Cl)c2)CC1)C(=O)c1c[nH]c(=O)c2ccccc12 | – | 2.51 | > 70 | – | 3.2 | > 70 | – | 2000 | –
4 | O=C(Nc1ccccc1OCC(O)CN1CCC(Oc2ccc(Cl)c(Cl)c2)CC1)C1CCC1 (configuration not stated) | – | 100 | – | – | – | – | – | – | IC50 (Histamine H1 receptor [10]): 5010 nM; Ki [11]: 15.8 nM
5 | COc1cc(C(=O)NC[C@@H](O)CN2CCC(Oc3ccc(Cl)c(Cl)c3)CC2)ccc1N | 63.1 | 3.98 | > 70 | 18 | 3.1 | > 70 | – | 251 | bioavailability [12]: 30%; half-life (in vivo [13]): 6.5 h; clearance (in vivo [14]): 56 mL/min/kg; Vd (in vivo [15]): 25 L/kg; hepatocyte CLint (in vitro [4]): 6 µL/min/1e6 cells; hepatocyte CLint (in vitro [6]): < 2 µL/min/1e6 cells
6 | N#Cc1cccc(OC[C@@H](O)CCN2CCC(Oc3ccc(Cl)c(Cl)c3)CC2)c1 | 0.316 | 31.6 | > 70 | 22 | > 4.5 | > 70 | < 3 | – | –
7 | N#Cc1cccc(OCCCN2CCC(Oc3ccc(Cl)c(Cl)c3)CC2)c1 | 12.6 | 794 | > 70 | 129 | > 4.5 | – | 3 | – | –
8 | O[C@@H](CNC1CCN(Cc2ccc(Cl)c(Cl)c2)CC1)COc1ccc2ncsc2c1 | 316 | 158 | > 70 | – | – | > 70 | < 3 | – | –
9 | O=C(NC[C@@H](O)CN1CCC(Oc2ccc(Cl)c(Cl)c2)CC1)c1c[nH]c2ccccc12 | 31.6 | 2.51 | > 70 | – | 3.9 | – | – | 2000 | –
10 | N#Cc1cccc(C(=O)NC[C@@H](O)CN2CCC(Oc3ccc(Cl)c(Cl)c3)CC2)c1 | 20 | 20 | > 70 | – | 3.5 | > 70 | – | – | microsomal CLint (in vitro [5]; microsomes): 25 µL/min/mg; microsomal CLint (in vitro [8]; microsomes): 4 µL/min/mg
11 | N#Cc1cccc(OC[C@@H](O)CN2CCC(Oc3ccc(Cl)c(Cl)c3)CC2)c1 | 3.16 | 251 | > 70 | 23 | > 4.5 | – | < 3 | – | –
12 | N#Cc1cccc(OC[C@@H](O)CNC2CCN(Cc3ccc(Cl)c(Cl)c3)CC2)c1 | 501 | 316 | > 70 | 23 | 3.1 | > 70 | – | – | hepatocyte CLint (in vitro [4]): 7 µL/min/1e6 cells
13 | O=C(NC[C@@H](O)CN1CCC(Oc2ccc(Cl)c(Cl)c2)CC1)c1c[nH]c(=O)c2ccccc12 | – | – | > 70 | – | – | – | – | – | IC50 [11]: 5010 nM
14 | O=C(NC[C@@H](O)CN1CCC(Oc2ccc(Cl)c(Cl)c2)CC1)c1n[nH]c2ccccc12 | 7.94 | 1.58 | > 70 | – | 2.9 | > 70 | – | 251 | –
15 | O=C(NC[C@@H](O)CN1CCC(Oc2ccc(Cl)c(Cl)c2)CC1)c1n[nH]c(=O)c2ccccc12 | – | 1.58 | > 70 | – | 3.7 | – | – | – | –
16 | CS(=O)(=O)c1ccccc1C(=O)NCC(O)CNC1CCN(Cc2ccc(Cl)c(Cl)c2)CC1 (configuration not stated) | 1260 | 79.4 | > 70 | < 3 | 1.2 | – | – | – | half-life (in vivo [13]): 2.3 h; clearance (in vivo [14]): 54 mL/min/kg; Vd (in vivo [15]): 9 L/kg; hepatocyte CLint (in vitro [4]): 4 µL/min/1e6 cells
17 | CS(=O)(=O)c1ccc(C(=O)NC[C@@H](O)CN2CCC(Oc3ccc(Cl)c(Cl)c3)CC2)s1 | 100 | 251 | > 70 | 20 | 2.9 | > 70 | – | – | hepatocyte CLint (in vitro [4]): 3 µL/min/1e6 cells
18 | O=C(NC[C@@H](O)CN1CCC(Oc2ccc(Cl)c(Cl)c2)CC1)c1cnnc2ccccc12 | 12.6 | 12.6 | > 70 | – | 3.3 | > 70 | – | 6310 | –
19 | O=C(NC[C@@H](O)CN1CCC(Oc2ccc(Cl)c(Cl)c2)CC1)n1c(=O)[nH]c2ccccc21 | – | 2.51 | > 70 | – | 4.5 | – | – | 501 | –
20 | N#Cc1cccc(S(=O)(=O)NC[C@@H](O)CN2CCC(Oc3ccc(Cl)c(Cl)c3)CC2)c1 | – | – | > 70 | 13 | – | – | 7 | – | –
21 | O=C(NC[C@@H](O)CN1CCC(Oc2ccc(Cl)c(Cl)c2)CC1)c1cc(=O)[nH]c2ccccc12 | 3.98 | 7.94 | > 70 | – | 3.5 | > 70 | – | > 10000 | –
22 | N#Cc1ccc(OC[C@@H](O)CNC2CCN(Cc3ccc(Cl)c(Cl)c3)CC2)cc1 | 501 | 126 | > 70 | – | – | > 70 | < 3 | – | –
23 | O=C(NC[C@@H](O)CN1CCC(Oc2ccc(Cl)c(Cl)c2)CC1)c1cn2cc(F)ccc2n1 | 15.8 | 200 | > 70 | 19 | 3.3 | > 70 | – | – | hepatocyte CLint (in vitro [4]): 7 µL/min/1e6 cells
